Test results published in ChEMBL document CHEMBL5321269, “Discovery, synthesis and biological evaluation of a series of N-(phenylcarbamothioyl)-2-napthamides as inhibitors of Claudin-1” (Bioorg Med Chem, 2023).

Columns and labels:
[1] = tested on: SW-620; test: Cytotoxicity against human SW620 cells assessed as cell growth inhibition at 25 uM relative to control; assay type: functional
[2] = Protein binding in human plasma assessed as unbound fraction; assay type: ADME, cell-free
[3] = Protein binding in mouse plasma assessed as unbound fraction; assay type: ADME, cell-free
[4] = target: CYP3A4 (Homo sapiens, UniProt P08684); test: Inhibition of CYP3A4 (unknown origin) at 10 uM relative to control; assay type: ADME
CYP3A4, sequence (P08684 whole entry): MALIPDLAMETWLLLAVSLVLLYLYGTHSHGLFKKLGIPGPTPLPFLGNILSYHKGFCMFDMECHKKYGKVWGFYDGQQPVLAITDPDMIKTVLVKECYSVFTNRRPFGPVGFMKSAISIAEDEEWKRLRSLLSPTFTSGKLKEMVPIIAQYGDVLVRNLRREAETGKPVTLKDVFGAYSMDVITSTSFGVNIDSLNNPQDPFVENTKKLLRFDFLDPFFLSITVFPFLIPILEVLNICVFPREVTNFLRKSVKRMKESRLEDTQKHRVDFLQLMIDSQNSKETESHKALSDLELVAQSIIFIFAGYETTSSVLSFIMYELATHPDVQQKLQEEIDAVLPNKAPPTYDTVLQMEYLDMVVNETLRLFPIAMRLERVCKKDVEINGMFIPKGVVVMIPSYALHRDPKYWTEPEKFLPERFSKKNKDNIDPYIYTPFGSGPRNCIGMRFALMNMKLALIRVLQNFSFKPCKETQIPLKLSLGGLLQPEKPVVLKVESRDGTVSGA

[5] = target: CYP2D6 (Homo sapiens, UniProt P10635); test: Inhibition of CYP2D6 (unknown origin) at 10 uM relative to control; assay type: ADME
CYP2D6, sequence (P10635 whole entry): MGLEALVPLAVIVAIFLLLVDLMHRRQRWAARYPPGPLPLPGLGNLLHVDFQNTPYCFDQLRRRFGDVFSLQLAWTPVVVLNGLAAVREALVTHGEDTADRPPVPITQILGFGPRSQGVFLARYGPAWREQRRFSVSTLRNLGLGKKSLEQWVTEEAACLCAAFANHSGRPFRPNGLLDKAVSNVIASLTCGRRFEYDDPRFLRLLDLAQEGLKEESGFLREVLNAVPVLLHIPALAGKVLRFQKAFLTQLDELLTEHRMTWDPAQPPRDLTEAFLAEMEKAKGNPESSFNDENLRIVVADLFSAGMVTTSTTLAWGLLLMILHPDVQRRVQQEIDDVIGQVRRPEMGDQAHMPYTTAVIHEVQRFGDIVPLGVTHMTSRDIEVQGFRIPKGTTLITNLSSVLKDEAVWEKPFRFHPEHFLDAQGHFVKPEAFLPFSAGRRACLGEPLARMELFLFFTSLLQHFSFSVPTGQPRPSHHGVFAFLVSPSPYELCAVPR

[6] = target: CYP2C19 (Homo sapiens, UniProt P33261); test: Inhibition of CYP2C19 (unknown origin) at 10 uM relative to control; assay type: ADME
CYP2C19, sequence (P33261 whole entry): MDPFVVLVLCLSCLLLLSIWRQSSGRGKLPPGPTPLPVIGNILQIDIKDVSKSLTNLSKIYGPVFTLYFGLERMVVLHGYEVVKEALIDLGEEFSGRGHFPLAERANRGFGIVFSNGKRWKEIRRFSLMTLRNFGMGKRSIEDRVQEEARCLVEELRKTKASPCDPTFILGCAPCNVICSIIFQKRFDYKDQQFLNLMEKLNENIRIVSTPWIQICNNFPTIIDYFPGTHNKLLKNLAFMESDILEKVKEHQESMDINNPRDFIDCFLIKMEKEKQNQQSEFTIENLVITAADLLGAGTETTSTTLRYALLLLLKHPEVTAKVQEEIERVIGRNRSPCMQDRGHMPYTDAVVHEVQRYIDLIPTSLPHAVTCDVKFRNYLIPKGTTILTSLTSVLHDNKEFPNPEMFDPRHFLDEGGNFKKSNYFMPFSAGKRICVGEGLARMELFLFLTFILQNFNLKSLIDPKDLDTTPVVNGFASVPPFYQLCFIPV

[7] = Half life in CD1 mouse at 5 mg/kg, ip; assay type: ADME, organism-based; conditions: in vivo
[8] = Mean residence time in CD1 mouse at 5 mg/kg, ip; assay type: ADME, organism-based; conditions: in vivo
[9] = Tmax in CD1 mouse at 5 mg/kg, ip; assay type: ADME, organism-based; conditions: in vivo
[10] = Cmax in CD1 mouse at 5 mg/kg, ip; assay type: ADME, organism-based; set-up: dose 5 mg/kg, route ip; conditions: in vivo
[11] = AUCinfinity in CD1 mouse at 5 mg/kg, ip; assay type: ADME, organism-based; set-up: dose 5 mg/kg, route ip; conditions: in vivo

Row | SMILES | inhibition at 25 µM [1] [%] | further results
1 | COc1cc2ccccc2cc1C(=O)NC(=S)Nc1ccc(-c2cscn2)cc1 | 29 | –
2 | COc1cc2ccccc2cc1C(=O)NC(=O)Nc1ccc(-c2cscn2)cc1 | 42.6 | Fu [2]: < 0.3%; Fu [3]: < 0.3%
3 | CCOc1cc2ccccc2cc1C(=O)NC(=S)Nc1ccc(-c2nc3ccccc3o2)cc1 | 0 | –
4 | O=C(NC(=S)Nc1ccc(-c2nc3ccccc3o2)cc1)c1ccc2cccnc2c1 | 0 | –
5 | COc1cc2ccccc2cc1C(=O)Nc1ccc(-c2nc3ccccc3s2)cc1 | 42.3 | –
6 | COc1cc2ccccc2cc1C(=O)NC(=S)Nc1ccc(-c2ncon2)cc1 | 18.4 | Fu [3]: < 0.03%
7 | O=C(NC(=O)c1ccc2ccccc2c1)Nc1ccc(-c2nc3ccccc3[nH]2)cc1 | 12.7 | –
8 | COc1cc2c(OC)cccc2cc1C(=O)NC(=S)Nc1ccc(-c2nc3ccccc3[nH]2)cc1 | 37.6 | –
9 | COc1ccccc1NC(=S)Nc1ccc(-c2nc3ccccc3o2)cc1 | 29.2 | –
10 | COc1ccccc1NC(=O)Nc1ccc(-c2nc3ccccc3[nH]2)cc1 | 23.8 | –
11 | O=C(Nc1ccc(N2CCN(C(=O)c3ccc4ccccc4c3)CC2)cc1)c1cc2ccccc2o1 | 27.8 | –
12 | CCOc1cc2ccccc2cc1C(=O)NC(=S)Nc1ccc(-c2nc3ccccc3s2)cc1 | 13 | –
13 | COc1cc2ccccc2cc1C(=O)NC(=S)Nc1ccc(-c2nccs2)cc1 | 34.8 | Fu [3]: 2.2%
14 | COc1ccccc1NC(=O)Nc1ccc(-c2nc3ccccc3o2)cc1 | 19.9 | –
15 | COc1cc2ccccc2cc1C(=O)NC(=S)Nc1ccc(-c2nc3ccccc3[nH]2)cc1 | 68.4 | Fu [2]: < 0.03%; Fu [3]: < 0.01%
16 | O=C(NC(=S)Nc1ccc(-c2nc3ccccc3[nH]2)cc1)c1ccc2cccnc2c1 | 0 | –
17 | COc1cc2ccccc2cc1C(=O)Nc1ncc(C(F)(F)F)s1 | 17.6 | –
18 | COc1cc2ccccc2cc1C(=O)NC(=S)Nc1ccc(-c2ncc[nH]2)cc1 | 89.9 | inhibition at 10 µM [4]: 28%; inhibition at 10 µM [5]: 36%; inhibition at 10 µM [6]: 43%; half-life [7]: 2.49 h; MRT [8]: 2.7 h; Tmax [9]: 1 h; Cmax [10]: 5060 ng/mL; AUC(0-inf) [11]: 15900 ng·h/mL
19 | O=C(NC(=S)Nc1ccc(-c2ncco2)cc1)c1ccc2cccnc2c1 | 1.4 | –

Row | SMILES | inhibition at 25 µM [1] [%] | further results
20 | O=C1c2ccccc2CCN1C(=S)Nc1ccc(-c2ncco2)cc1 | 0.9 | –
21 | CC(C)Oc1cc2ccccc2cc1C(=O)NC(=S)Nc1ccc(-c2nc3ccccc3o2)cc1 | 17.2 | –
22 | COc1cc2c(OC)cccc2cc1C(=O)NC(=S)Nc1ccc(-c2nc3ccccc3s2)cc1 | 15.8 | –
23 | O=C(NC(=S)Nc1ccc(-c2nc3ccccc3o2)cc1)c1ccc2ccccc2c1 | 76.4 | Fu [2]: < 0.04%; Fu [3]: < 0.03%
24 | COc1cc2ccccc2cc1C(=O)NC(=O)Nc1ccc(-c2nc3ccccc3s2)cc1 | 0 | –
25 | COc1ccccc1C(=O)NC(=S)Nc1ccc(-c2nc3ccccc3[nH]2)cc1 | 16.9 | –
26 | COc1cc2ccccc2cc1C(=O)NC(=S)Nc1ccc(-c2nc3ccccc3o2)cc1 | 57.6 | Fu [3]: < 0.03%
27 | COc1cc2ccccc2cc1C(=O)NC(=O)Nc1ccc(-c2nc3ccccc3[nH]2)cc1 | 90.8 | Fu [2]: < 0.3%; Fu [3]: < 0.3%
28 | COc1cc2ccccc2cc1C(=O)NC(=S)Nc1ccc(-c2nc3ccccc3s2)cn1 | 71.9 | –
29 | COc1cc2ccccc2cc1C(=O)NC(=S)Nc1ccc(-c2nnco2)cc1 | 86.5 | inhibition at 10 µM [4]: 16%; inhibition at 10 µM [5]: 19%; inhibition at 10 µM [6]: 37%; half-life [7]: 3.51 h; MRT [8]: 5.3 h; Tmax [9]: 2.33 h; Cmax [10]: 5100 ng/mL; AUC(0-inf) [11]: 34100 ng·h/mL
30 | CCOc1cc2ccccc2cc1C(=O)NC(=S)Nc1ccc(-c2nnco2)cc1 | 0 | –
31 | COc1ccccc1NC(=S)Nc1ccc(-c2nc3ccccc3[nH]2)cc1 | 13.2 | –
32 | COc1cc2ccccc2cc1C(=O)NC(=S)Nc1ccc(-c2ncco2)cc1 | 33.1 | –
33 | COc1cc2ccccc2cc1C(=O)NC(=O)Nc1ccc(-c2nc3ccccc3o2)cc1 | 0 | –
34 | O=C1c2ccccc2CCN1C(=S)Nc1ccc(-c2nc3ccccc3o2)cc1 | 0 | Fu [2]: < 0.03%
35 | COc1cc2ccccc2cc1C(=O)NC(=S)Nc1ccc(-c2nc3ccccc3o2)cn1 | 0 | –
36 | O=C(Nc1ccc(N2CCN(C(=O)c3ccccn3)CC2)cc1)c1cc2ccccc2o1 | 44.8 | –
37 | COc1ccccc1C(=O)NC(=S)Nc1ccc(-c2nc3ccccc3o2)cc1 | 17.2 | –
38 | COc1cc2ccccc2cc1C(=O)NC(=S)Nc1ccc(-c2nc3ccccc3s2)cc1 | 7.1 | –
